Test system: Artemia salina
Experiment: Toxicity against Artemia salina
Type: organism-based
Conditions: in vivo

Row | Structure (SMILES) | LC50 [ppm]
1 | COc1cc2nc3occc3c(OC)c2cc1OC [KOKUSAGININE] | 367
2 | COc1c2ccoc2nc2c(OC)c3c(cc12)OCO3 [FLINDERSIAMINE] | > 1000

— ChEMBL document CHEMBL1149744, “Terpenoids and Alkaloids from Esenbeckia belizencis. Spontaneous Oxidation of Furoquinoline Alkaloids” (J Nat Prod, 1992)
